Assay results as given in the supplement of paper PMC13380429.

Assays:
Settings in all cases: 72 h
Caco-2 [1] = assay: cell viability relative to DMSO; higher = less toxic
Calu-3 [2] = assay: as above
HepG2 [3] = assay: as above
U2OS [4] = assay: as above
Vero E6 [5] = assay: as above
Caco-2 [6] = assay: relative viability EC50 (midpoint between 100% and the lowest measured viability); higher = less toxic
Calu-3 [7] = assay: as above
HepG2 [8] = assay: as above
U2OS [9] = assay: as above
Vero E6 [10] = assay: as above
Caco-2 [11] = assay: drug sensitivity score (DSS) for viability; higher = more toxic; extreme values may be limits of the assay
Calu-3 [12] = assay: as above
HepG2 [13] = assay: as above
U2OS [14] = assay: as above
Vero E6 [15] = assay: as above

Compound | cell viability (Caco-2 [1]; 1 nM) [%] | cell viability (Caco-2 [1]; 10 nM) [%] | cell viability (Caco-2 [1]; 100 nM) [%] | cell viability (Caco-2 [1]; 1000 nM) [%] | cell viability (Caco-2 [1]; 10000 nM) [%] | cell viability (Calu-3 [2]; 1 nM) [%] | cell viability (Calu-3 [2]; 10 nM) [%] | cell viability (Calu-3 [2]; 100 nM) [%] | cell viability (Calu-3 [2]; 1000 nM) [%] | cell viability (Calu-3 [2]; 10000 nM) [%] | cell viability (HepG2 [3]; 1 nM) [%] | cell viability (HepG2 [3]; 10 nM) [%] | cell viability (HepG2 [3]; 100 nM) [%] | cell viability (HepG2 [3]; 1000 nM) [%] | cell viability (HepG2 [3]; 10000 nM) [%] | cell viability (U2OS [4]; 1 nM) [%] | cell viability (U2OS [4]; 10 nM) [%] | cell viability (U2OS [4]; 100 nM) [%] | cell viability (U2OS [4]; 1000 nM) [%] | cell viability (U2OS [4]; 10000 nM) [%] | cell viability (Vero E6 [5]; 1 nM) [%] | cell viability (Vero E6 [5]; 10 nM) [%] | cell viability (Vero E6 [5]; 100 nM) [%] | cell viability (Vero E6 [5]; 1000 nM) [%] | cell viability (Vero E6 [5]; 10000 nM) [%] | relative viability EC50 (Caco-2 [6]) [µM] | relative viability EC50 (Calu-3 [7]) [µM] | relative viability EC50 (HepG2 [8]) [µM] | relative viability EC50 (U2OS [9]) [µM] | relative viability EC50 (Vero E6 [10]) [µM] | drug sensitivity score (Caco-2 [11]) | drug sensitivity score (Calu-3 [12]) | drug sensitivity score (HepG2 [13]) | drug sensitivity score (U2OS [14]) | drug sensitivity score (Vero E6 [15])
C[C@@]1(O)[C@H](O)[C@@H](CO)O[C@H]1n1cnc2c(NC3CCCC3)nc(Cl)nc21 [2'-MeCCPA] | 95.9 | 100 | 102 | 105 | 103 | 93.9 | 98 | 96.5 | 100 | 91.4 | 95.6 | 95.5 | 101 | 97.7 | 96.8 | 96.9 | 100 | 96.8 | 99.6 | 100 | 105 | 98.7 | 100 | 98.9 | 102 | > 10 | > 10 | > 10 | > 10 | > 10 | 0 | 0 | 0 | 0 | 0
c1ccc2sc(N3CCN(Cc4ccc5c(c4)OCO5)CC3)nc2c1 [2-[1-(4-piperonyl)piperazinyl]benzothiazole] | 103 | 92.2 | 98.9 | 90.3 | 100 | 102 | 92.8 | 103 | 98.6 | 90.5 | 98.4 | 108 | 100 | 96 | 103 | 97.2 | 98 | 106 | 96.1 | 104 | 92 | 94.8 | 91.7 | 95.8 | 100 | > 10 | > 10 | > 10 | > 10 | > 10 | 0 | 0 | 0 | 0 | 0
Cc1ncc[nH]1 [2-methylimidazole] | 98.7 | 97.4 | 92.6 | 107 | 104 | 96.7 | 97.1 | 112 | 107 | 117 | 95.3 | 95.7 | 89.7 | 96.2 | 91.5 | 98.7 | 97.4 | 101 | 97.8 | 99 | 96.2 | 97.8 | 96.1 | 94.9 | 108 | > 10 | > 10 | > 10 | > 10 | > 10 | 0 | 0 | 0 | 0 | 0
CC(=O)OCC1=C(C(=O)O)N2C(=O)[C@@H](N)[C@H]2SC1 [7-aminocephalosporanic-acid] | 101 | 106 | 102 | 98.7 | 100 | 116 | 102 | 97.5 | 99.5 | 115 | 105 | 117 | 109 | 115 | 99.7 | 101 | 99 | 100 | 97.8 | 101 | 97.5 | 100 | 96.4 | 95.5 | 98.8 | > 10 | > 10 | > 10 | > 10 | > 10 | 0 | 0 | 0 | 0 | 0
O=C(O)c1c2ccccc2cc2ccccc12 [9-anthracenecarboxylic-acid] | 93.1 | 95.8 | 95 | 100 | 105 | 97.1 | 97.9 | 99.4 | 101 | 96 | 101 | 90.5 | 102 | 104 | 102 | 100 | 100 | 101 | 101 | 103 | 98.4 | 97.1 | 98 | 94.7 | 103 | > 10 | > 10 | > 10 | > 10 | > 10 | 0 | 0 | 0 | 0 | 0
